{"source": "BindingDB's records for patent US20250289799", "about": "(Jiangsu Yahong Meditech Co., 2025)", "data": [{"biological_target": "Ubiquitin carboxyl-terminal hydrolase 1/WD repeat-containing protein 48 (Homo sapiens, UniProt O94782+Q8TAF3)", "sequence (O94782 whole entry)": "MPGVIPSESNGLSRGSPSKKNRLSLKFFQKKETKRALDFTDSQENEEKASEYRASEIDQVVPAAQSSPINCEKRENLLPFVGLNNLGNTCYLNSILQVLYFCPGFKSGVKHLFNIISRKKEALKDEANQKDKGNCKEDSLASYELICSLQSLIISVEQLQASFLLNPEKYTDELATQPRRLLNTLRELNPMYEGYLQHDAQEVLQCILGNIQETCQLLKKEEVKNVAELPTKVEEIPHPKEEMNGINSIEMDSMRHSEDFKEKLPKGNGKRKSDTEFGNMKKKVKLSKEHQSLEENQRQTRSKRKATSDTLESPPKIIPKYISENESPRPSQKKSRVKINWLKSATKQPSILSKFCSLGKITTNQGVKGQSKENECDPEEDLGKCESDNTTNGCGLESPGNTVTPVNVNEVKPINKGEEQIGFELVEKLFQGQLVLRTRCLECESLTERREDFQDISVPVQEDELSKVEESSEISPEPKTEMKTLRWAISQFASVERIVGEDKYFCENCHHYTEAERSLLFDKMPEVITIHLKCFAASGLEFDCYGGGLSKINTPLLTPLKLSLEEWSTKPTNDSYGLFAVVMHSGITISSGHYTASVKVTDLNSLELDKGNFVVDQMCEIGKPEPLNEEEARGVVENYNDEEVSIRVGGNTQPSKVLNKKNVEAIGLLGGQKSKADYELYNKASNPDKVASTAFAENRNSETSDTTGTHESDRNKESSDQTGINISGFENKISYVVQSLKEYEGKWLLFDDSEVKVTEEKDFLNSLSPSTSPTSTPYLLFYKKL", "sequence (Q8TAF3 whole entry)": "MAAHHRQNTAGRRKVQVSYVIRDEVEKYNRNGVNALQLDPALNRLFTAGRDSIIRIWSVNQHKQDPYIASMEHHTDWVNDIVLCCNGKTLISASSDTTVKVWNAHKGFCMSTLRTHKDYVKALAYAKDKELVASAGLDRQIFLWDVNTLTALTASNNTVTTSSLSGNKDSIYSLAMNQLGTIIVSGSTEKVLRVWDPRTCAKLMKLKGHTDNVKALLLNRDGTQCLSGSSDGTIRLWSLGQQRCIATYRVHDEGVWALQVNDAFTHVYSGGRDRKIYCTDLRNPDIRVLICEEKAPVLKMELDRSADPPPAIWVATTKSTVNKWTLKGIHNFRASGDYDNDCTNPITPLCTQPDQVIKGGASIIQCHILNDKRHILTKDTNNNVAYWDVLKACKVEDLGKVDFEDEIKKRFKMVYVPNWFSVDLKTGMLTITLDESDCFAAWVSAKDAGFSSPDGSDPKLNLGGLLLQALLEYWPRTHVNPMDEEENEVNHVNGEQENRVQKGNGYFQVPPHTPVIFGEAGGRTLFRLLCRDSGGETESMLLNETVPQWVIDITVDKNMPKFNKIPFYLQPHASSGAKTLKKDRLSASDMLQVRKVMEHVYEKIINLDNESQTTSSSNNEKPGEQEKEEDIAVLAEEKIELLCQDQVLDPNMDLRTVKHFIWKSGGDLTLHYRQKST", "assay": "In Vitro USP1  Inhibitory Activity", "procedure": "Experimental Methods1) Preparation of 1× assay buffer: 1× assay buffer (modified Tris buffer) was prepared;2) Compound dilution: The compound was transferred to the assay plate by Echo.", "units": {"IC50": "nM"}, "values": [{"smiles": "COc1cnc(-c2ccccc2C2CC2)nc1NCc1ccc(-n2nc(C(F)(F)F)cc2C)cc1", "note": "[US20250289799, Example 170]", "IC50": 2.9}, {"smiles": "COc1ncnc(C2CC2)c1-c1ncc(OC(C)C)c(NCC2CCN(c3nc(C(F)(F)F)cn3C)CC2)n1", "note": "[US20250289799, Example 110]", "IC50": 28.6}, {"smiles": "CC(C)c1ccccc1-c1nc(NCc2ccc(-c3nc(C(F)(F)F)cn3C)cc2)c2occc2n1", "note": "[US20250289799, Example 33]", "IC50": 1.2}, {"smiles": "Cc1noc(C(C)C)c1-c1nc(NCc2ccc(-c3ccccn3)cc2)c2occc2n1", "note": "[US20250289799, Example 189]", "IC50": 16}, {"smiles": "C#CCN(Cc1ccc(-c2nc(C(F)(F)F)cn2C)cc1)c1nc(-c2c(OC)ncnc2C2CC2)ncc1OC", "note": "[US20250289799, Example 139]", "IC50": 5.2}, {"smiles": "CC(C)c1ccccc1-c1ncc(C(F)(F)F)c(NCC2CCN(c3nc(C(F)(F)F)cn3C)CC2)n1", "note": "[US20250289799, Example 75]", "IC50": 3.7}, {"smiles": "COc1cnc(-c2c(Cl)cnn2C2CC2)nc1NCc1ccc(-c2nc(C(F)(F)F)cn2C)cc1", "note": "[US20250289799, Example 192]", "IC50": 3.8}, {"smiles": "COc1cnc(-c2ccccc2C(C)C)nc1N(C)CC1CCC(c2ccccn2)CC1", "note": "(centres undefined) [US20250289799, Example 61]", "IC50": 11}, {"smiles": "COc1ncnc(C2CC2)c1-c1ncc(CO)c(NCc2ccc(-c3nc(C(F)(F)F)cn3C(C)C)cc2)n1", "note": "[US20250289799, Example 137]", "IC50": 24}, {"smiles": "COc1cnc(-c2c(C)cnn2C2CC2)nc1N(C)Cc1ccc(-c2nc(C(F)(F)F)cn2C)cc1", "note": "[US20250289799, Example 198]", "IC50": 3.2}, {"smiles": "COc1cc(-c2nc(C(F)(F)F)cn2C)ccc1CNc1nc(-c2ccccc2C(C)C)nc2ccoc12", "note": "[US20250289799, Example 81]", "IC50": 3.7}, {"smiles": "COc1cnc(-c2c(OC)ncnc2C2CC2)nc1N(C)Cc1ccc(-c2nc(C(F)(F)F)cn2C)cc1", "note": "[US20250289799, Example 8]", "IC50": 1.4}, {"smiles": "COc1cnc(-c2c(OC)cnn2C2CC2)nc1NCC1CCN(c2nc(C(F)(F)F)cn2C)CC1", "note": "[US20250289799, Example 184]", "IC50": 94}, {"smiles": "COc1cnc(-c2c(C)cnn2C2CC2)nc1N(O)Cc1ccc(-c2nc(C(F)(F)F)cn2C)cc1", "note": "[US20250289799, Example 205]", "IC50": 43}, {"smiles": "COc1cnc(-c2c(OC)ncnc2C2CC2)nc1N(C)CC12C3C4C1C1C2C3C41c1nc(C(F)(F)F)cn1C", "note": "(centres undefined) [US20250289799, Example 207]", "IC50": 3.5}, {"smiles": "COc1cnc(-c2c(OC)cnn2C(C)C)nc1NCC1CCN(c2nc(C(F)(F)F)cn2C)CC1", "note": "[US20250289799, Example 179]", "IC50": 56}, {"smiles": "CC(C)c1ccccc1-c1ncc(N2CCN(C)CC2)c(NCc2ccc(-c3nc(C(F)(F)F)cn3C)cc2)n1", "note": "[US20250289799, Example 88]", "IC50": 10}, {"smiles": "COc1ncnc(C2CC2)c1-c1ncc(OC(C)C)c(N(C)CC2CCN(c3nc(C(F)(F)F)cn3C)CC2)n1", "note": "[US20250289799, Example 108]", "IC50": 19.7}, {"smiles": "COc1cnc(-c2ccccc2C(C)C)nc1NCC1CCN(c2nc(C(F)(F)F)cn2C)CC1", "note": "[US20250289799, Example 65]", "IC50": 2.1}, {"smiles": "COc1cnc(-c2cccnc2C(C)C)nc1NCc1ccc(-c2nc(C(F)(F)F)cn2C)cc1", "note": "[US20250289799, Example 157]", "IC50": 2.9}, {"smiles": "[2H]C([2H])([2H])N(Cc1ccc(-c2nc(C(F)(F)F)cn2C2CC2)cc1)c1nc(-c2c(OC)ncnc2C2CC2)ncc1F", "note": "[US20250289799, Example 128]", "IC50": 2.6}, {"smiles": "CC(C)c1ccccc1-c1ncc(C(F)(F)F)c(NCC2CCN(c3nc(C(F)(F)F)cn3C)CC2)n1", "note": "[US20250289799, Example 25]", "IC50": 3.7}, {"smiles": "COc1cnc(-c2ccccc2C(C)C)nc1NCC1CCN(c2ccccn2)CC1", "note": "[US20250289799, Example 5]", "IC50": 7.6}, {"smiles": "COc1cc(-c2nc(C(F)(F)F)cn2C)ccc1CNc1nc(-c2ccccc2C2CC2)nc2ccoc12", "note": "[US20250289799, Example 175]", "IC50": 3.6}, {"smiles": "COc1ncnc(C2CC2)c1-c1ncc(OC(F)F)c(NCc2ccc(-c3nc(C(F)(F)F)cn3C)cc2)n1", "note": "[US20250289799, Example 134]", "IC50": 3.2}, {"smiles": "COc1ncnc(C2CC2)c1-c1ncc(OC(F)F)c(NCc2ccc(-n3nc(C(F)(F)F)cc3C)cc2)n1", "note": "[US20250289799, Example 135]", "IC50": 3.2}, {"smiles": "COc1cc(-c2nc(C(F)(F)F)cn2C)ccc1CNc1nc(-c2c(OC)ncnc2C2CC2)nc2ccoc12", "note": "[US20250289799, Example 119]", "IC50": 7.6}, {"smiles": "CC(C)c1ccccc1-c1nc(NCc2ccc3c(c2)CCN(C(C)C)C3=O)c2occc2n1", "note": "[US20250289799, Example 78]", "IC50": 6.4}, {"smiles": "CC(C)Oc1cnc(-c2ccccc2C(C)C)nc1N(C)Cc1ccc(-c2nc(C(F)(F)F)cn2C)cc1", "note": "[US20250289799, Example 71]", "IC50": 9.9}, {"smiles": "COc1cnc(-c2c(Cl)cnn2C(C)C)nc1NCc1ccc(-c2ccccn2)cc1", "note": "[US20250289799, Example 162]", "IC50": 3.9}, {"smiles": "COc1cnc(-c2c(OC)ncnc2C2CC2)nc1NCC12CCC(c3nc(C(F)(F)F)cn3C)(CC1)CC2", "note": "[US20250289799, Example 104]", "IC50": 8.8}, {"smiles": "COc1cnc(-c2ccccc2C(C)C)nc1NCc1ccc(-c2ccccn2)cc1", "note": "[US20250289799, Example 64]", "IC50": 3.7}, {"smiles": "COc1cnc(-c2cncnc2C2CC2)nc1NCc1ccc(-c2nc(C(F)F)cn2C)cc1", "note": "[US20250289799, Example 195]", "IC50": 243}, {"smiles": "COc1cc(CNc2nc(-c3c(OC)ncnc3C3CC3)ncc2OC)ccc1-n1nc(C(F)(F)F)cc1C", "note": "[US20250289799, Example 103]", "IC50": 10}, {"smiles": "CC(C)Oc1cnc(-c2ccccc2C(C)C)nc1NCC1CCN(c2nc(C(F)(F)F)cn2C)CC1", "note": "[US20250289799, Example 72]", "IC50": 6.1}, {"smiles": "COc1cnc(-c2c(OC)ncnc2C2CC2)nc1NCC12C3C4C1C1C2C3C41c1nc(C(F)(F)F)cn1C1CC1", "note": "(centres undefined) [US20250289799, Example 216]", "IC50": 1.4}, {"smiles": "COC(=O)Cc1cnc(-c2ccccc2C(C)C)nc1NCc1ccc(-c2nc(C(F)(F)F)cn2C)cc1", "note": "[US20250289799, Example 91]", "IC50": 1.3}, {"smiles": "COc1ncnc(C2CC2)c1-c1nc(NCc2ccc(-c3nc(C(F)(F)F)cn3C)s2)c2occc2n1", "note": "[US20250289799, Example 113]", "IC50": 23}, {"smiles": "COc1cnc(-c2c(Cl)cnn2C(C)C)nc1NCc1ccc(-n2nc(C(F)(F)F)cc2C)cc1", "note": "[US20250289799, Example 165]", "IC50": 1.4}, {"smiles": "CC(C)c1ccccc1-c1nc(NCc2ccc(-c3ccccn3)cc2)c2occc2n1", "note": "[US20250289799, Example 32]", "IC50": 2.8}, {"smiles": "COc1cc(-c2nc(C(F)(F)F)cn2C)ccc1CNc1nc(-c2ccccc2C2CC2)ncc1OC", "note": "[US20250289799, Example 171]", "IC50": 2.3}, {"smiles": "CCOCCOc1ccc(CNc2nc(-c3ccccc3C(C)C)ncc2OC)cc1", "note": "[US20250289799, Example 68]", "IC50": 3.2}, {"smiles": "COc1cnc(-c2ccccc2C(C)C)nc1NCc1ccc(-n2nc(C(F)(F)F)cc2C)cc1", "note": "[US20250289799, Example 7]", "IC50": 4.5}, {"smiles": "COC1CC(Oc2ccc(CNc3nc(-c4ccccc4C(C)C)nc4ccoc34)cc2)C1", "note": "(centres undefined) [US20250289799, Example 80]", "IC50": 26}]}]}
